Laboratory results taken from patent US20240027453A1, “METHOD FOR DETECTION AND QUANTITATIVE MONITORING OF INFECTIONS WITH HERPESVIRUSES” (The Trustees of Princeton University, priority 2020, published 2024).
Like-named read-outs stand apart in the source and are kept apart here.

Tested on: HCMV
Assay type: cell-based
Details: FIG. 7A
Procedure: In example herpesvirus PRM assay methods shown herein, cell pellets were lysed in 2% SDS, 100 mM NaCl, 0.5 mM EDTA, 50 mM Tris, pH 8.2, and 50 μg of protein was reduced and alkylated with 25 mM TCEP and 50 mM CAM respectively for 20 min at 70° C. Proteins were then precipitated via methanol chloroform precipitation (Wessel & Flugg, Anal Biochem. 138(1):141-143, 1984), resuspended in 50 mM HEPES, pH 8.2 and digested overnight with trypsin (50:1 protein:enzyme w/w ratio). Digested peptides were desalted by SDB-RPS StageTip as previously described (Lum et al., Cell Syst., 7(6):[…], 2018; Greco et al., Methods Mol Biol 1410:39-63, 2016; Federspiel & Cristea, Methods Mol Biol., 1977:115-143, 2019).
Peptides (1.0 μg on column) were analyzed by LC-MS/MS using a Dionex Ultimate 3000 UHPLC coupled online to an EASYSpray ion source and a Q Exactive HF. Peptides were separated on an EASYSpray C18 column (75 μm×25 cm) heated to 50° C. using a linear gradient of 5% B to 32% B over 60 min at a flow rate of 250 nL/min and were ionized at 1.7 kv. Mobile phase A consisted of 0.1% FA in H2O and mobile phase B consisted of 0.1% FA, 2.9% H2O in ACN.
The PRM method was controlled by a peptide inclusion list with retention time windows of 6 min for selected precursor ions.
The PRM assay was developed and analyzed using the open-source software Skyline (Maclean et al., Bioinformatics 26(7):966-968, 2010). Summed area under the curve of 3-4 transitions per peptide was used for quantitation. Targeted peptides were normalized to host protein loading control peptides. Peptide values for each sample were scaled to the average of each peptide across all runs. The average of multiple peptides was used as the inferred value for the protein measurement when more than one peptide was quantified (Federspiel et al., PLoS Biol. 17(9):e3000437. Doi: 10.1371/journal.pbio.3000437). PRM quantitation data were graphed using the Python Seaborn and Matplotlib libraries.
MRC5 primary human fibroblasts (HFs) (ATCC CCL-171) were used as the model system for HSV-1 and HCMV infections and were cultured in complete growth medium (DMEM supplemented with 10% fetal bovine serum and 1% penicillin-streptomycin antibiotics) at 37° C. and 5% CO2. iSLK.219 cells harboring latent KSHV (a gift from Dr. Britt Glaunsinger, University of California, Berkeley) were grown in complete growth medium supplemented with 500 μg/ml hygromycin (ThermoFisher Scientific, 10687010) at 37° C. and 5% CO2. All cells were used for experiments within a maximum of 10 passages.
Wild type HSV-1 strain 17+ (a gift from Beate Sodeik, Hannover Medical School, Hannover, Germany) was propagated as previously described (Diner et al., 2015). Briefly, PO stocks were generated by electroporating pBAC-HSV-1 into U-2 OS cells. […] In a similar manner, wild type HCMV strain AD169 was produced from BAC electroporation into HFs and working stocks were propagated by infecting HFs at a low level. In both cases, cell-associated virus was released by sonication, combined with supernatant virus, then concentrated by ultracentrifugation (20,000 rpm, 2 hours, 4° C. with SW28 swinging bucket rotor [Beckman Coulter]) over a 10% ficoll (HSV-1) or 20% sorbitol (HCMV) cushion. Virus stock titers were determined by plaque assay for HSV-1 or tissue culture infectious dose (TCID50) for HCMV and infections were performed at a multiplicity of infection (MOI) of 3.
12 hours prior to virus infection or reactivation, cells were treated with either the small molecule drug or DMSO/PBS control at an equivalent volume. […] For infection cycles lasting longer than 24 hours, small molecule drugs were re-added to the cell culture medium every 24 hours. Upon collection, cells were rinsed with PBS, scraped into a microcentrifuge tube, pelleted by centrifugation, and rinsed again with PBS.

## Oc1ccc(C=Cc2cc(O)cc(O)c2)cc1 [Resveratrol]
Timepoint 24, DE
  CVC2 (P16726) protein level: 0.02416
  DBP (P17147) protein level: 0.2603
  HELI (P16736) protein level: 0.5239
  IR01 (P09710) protein level: 0.2395
  NEC2 (P16791) protein level: 0.05031
  TRM1 (P16724) protein level: 0.0496
  UL4 (P17146) protein level: 0.02792
  UL26 (P16762) protein level: 0.08745
  UL32 (P08318) protein level: 0.02724
  UL34 (P16812) protein level: 0.1096
  UL38 (P16779) protein level: 0.9691
  UL44 (P16790) protein level: 0.0591
  UL48 (P16785) protein level: 0.02194
  UL54 (P08546) protein level: 0.6295
  UL71 (P16823) protein level: 0.5252
  UL78 (P16751) protein level: 1.896
  UL84 (P16727) protein level: 0.1406
  UL95 (P16801) protein level: 0.06756
  UL96 (P16787) protein level: 0.4727
  UL97 (P16788) protein level: 0.3652
  UL98 (P16789) protein level: 0.2979
  UL102 (P16827) protein level: 0.889
  UL104 (P16735) protein level: 0.07335
  UL112/UL113 (P17151) protein level: 0.3601
  UL114 (P16769) protein level: 0.8008
  UL119/UL118 (P16739) protein level: 0.5596
  UL128 (P16837) protein level: 0.08035
  US8 (P09730) protein level: 0.9856
  US9 (P09729) protein level: 1.12
  US12 (P09721) protein level: 1.673
  US13 (P09720) protein level: 0.5476
  US14 (P09719) protein level: 0.3883
  US22 (P09722) protein level: 0.3379
  US23 (P09701) protein level: 1.209
  US24 (P09700) protein level: 1.019
  US34 (P09709) protein level: 2.475
  gB (P06473) protein level: 0.2035
Timepoint 24, IE
  IRS1 (P09715) protein level: 0.53
  TRS1 (P09695) protein level: 0.2907
  UL13 (P16755) protein level: 2.216
  UL36 (P16767) protein level: 1.36
  UL37 (P16778) protein level: 0.9797
  UL122 (P19893) protein level: 0.06584
  UL123 (P13202) protein level: 1.053
Timepoint 24, L
  CVC1 (P16799) protein level: 0.1335
  IR11 (P16809) protein level: 0.4092
  MCP (P16729) protein level: 0.005554
  TRM2 (P16792) protein level: 0.01236
  UL22A (P16845) protein level: 0.06878
  UL25 (P16761) protein level: 0.02173
  UL29 (P16764) protein level: 0.6989
  UL31 (P16848) protein level: 0.4434
  UL43 (P16781) protein level: 0.0621
  UL52 (P16793) protein level: 0.02488
  UL80 (P16753) protein level: 0.03642
  UL82 (P06726) protein level: 0.2024
  UL88 (P16731) protein level: 0.05174
  UL94 (P16800) protein level: 0.1027
  UL99 (P13200) protein level: 0.04805
  UL103 (P16734) protein level: 0.3861
  UL117 (P16770) protein level: 0.7439
  gH (P12824) protein level: 0.08651
  gL (P16832) protein level: 0.03756
  gM (P16733) protein level: 0.04047
  gN (P16795) protein level: 0.1854
Timepoint 24, LL
  DUT (P16824) protein level: 0.3815
  IR12 (P16810) protein level: 0.1305
  TRX1 (P16783) protein level: 0.007402
  TRX2 (P16728) protein level: 0.006335
  UL24 (P16760) protein level: 0.115
  UL40 (P16780) protein level: 0.6816
  UL47 (P16784) protein level: 0.01314
  UL49 (P16786) protein level: 0.3801
  UL69 (P16749) protein level: 0.259
  UL70 (P17149) protein level: 0.2151
  UL83 (P06725) protein level: 0.04868
  UL132 (P69338) protein level: 0.1519
  US15 (P09718) protein level: 2.089
Timepoint 48, DE
  CVC2 (P16726) protein level: 0.04895
  DBP (P17147) protein level: 0.3174
  HELI (P16736) protein level: 0.7035
  IR01 (P09710) protein level: 0.3325
  NEC2 (P16791) protein level: 0.1347
  RIR1 (P16782) protein level: 0.1467
  TRM1 (P16724) protein level: 0.1744
  UL4 (P17146) protein level: 0.1071
  UL26 (P16762) protein level: 0.09224
  UL32 (P08318) protein level: 0.06407
  UL34 (P16812) protein level: 0.1265
  UL35 (P16766) protein level: 0.02653
  UL38 (P16779) protein level: 0.8069
  UL44 (P16790) protein level: 0.09657
  UL48 (P16785) protein level: 0.05393
  UL54 (P08546) protein level: 0.9464
  UL71 (P16823) protein level: 0.3661
  UL78 (P16751) protein level: 1.07
  UL84 (P16727) protein level: 0.1489
  UL95 (P16801) protein level: 0.2914
  UL96 (P16787) protein level: 0.3861
  UL97 (P16788) protein level: 0.3732
  UL98 (P16789) protein level: 0.3412
  UL102 (P16827) protein level: 1.27
  UL104 (P16735) protein level: 0.1091
  UL112/UL113 (P17151) protein level: 0.4545
  UL114 (P16769) protein level: 1.322
  UL119/UL118 (P16739) protein level: 0.6367
  UL128 (P16837) protein level: 0.03596
  US8 (P09730) protein level: 1.343
  US9 (P09729) protein level: 2.242
  US12 (P09721) protein level: 0.8964
  US13 (P09720) protein level: 0.5923
  US14 (P09719) protein level: 0.2304
  US22 (P09722) protein level: 0.5371
  US23 (P09701) protein level: 0.5982
  US24 (P09700) protein level: 0.4857
  US34 (P09709) protein level: 2.409
  gB (P06473) protein level: 0.1991
Timepoint 48, IE
  IRS1 (P09715) protein level: 0.8671
  TRS1 (P09695) protein level: 0.7123
  UL13 (P16755) protein level: 0.6646
  UL36 (P16767) protein level: 1.045
  UL37 (P16778) protein level: 1.143
